Patent publication US11716992B2, “5A5B6C tricyclic spirolactone derivative, preparation method therefor and use thereof” (NANKAI UNIVERSITY, priority 2017, dated 2023)

What follows are compounds tested on Rhizoctonia cerealis (assay: Fungicidal activity, fungicide growth rate method, RC). Conditions: Ceratobasidium cereale, 50 μg/mL; read-out: fungicidal activity (growth inhibition rate), RC.
Type: cell-based
Compound C=C(C)C1CC(=O)[C@@]2(O)CC=CC[C@H]12 (stereo partly drawn) [Zyj06-166] has an inhibition at 50 µg/mL of 0%.
Compound C=C(C)C1C[C@]2(O)C(C(=O)OCC)C(=O)O[C@@]23CC=CC[C@H]13 (stereo partly drawn) [Zyj06-167] has an inhibition at 50 µg/mL of 59%.
With C=C(C)[C@@H]1C[C@]2(O)CC(=O)O[C@@]23CC=CC[C@H]13 [Zyj06-175] the inhibition at 50 µg/mL was 61%.

These compounds were tested on Physalospora piricola (assay: Fungicidal activity, fungicide growth rate method, PP). Conditions: 50 μg/mL; read-out: fungicidal activity (growth inhibition rate), PP.
Type: cell-based
Work on C=C(C)C1CC(=O)[C@@]2(O)CC=CC[C@H]12 (stereo partly drawn) [Zyj06-166] yielded an inhibition at 50 µg/mL of 38%.
In the case of C=C(C)C1C[C@]2(O)C(C(=O)OCC)C(=O)O[C@@]23CC=CC[C@H]13 (stereo partly drawn) [Zyj06-167], the inhibition at 50 µg/mL is reported as 0%.
In the case of C=C(C)[C@@H]1C[C@]2(O)CC(=O)O[C@@]23CC=CC[C@H]13 [Zyj06-175], the inhibition at 50 µg/mL is reported as 8%.

These compounds were tested on Phytophthora infestans (Mont.) de Bary (assay: microbe, parasite or virus in culture). Conditions: Phytophthora infestans, read-out: fungicidal activity (growth inhibition rate), PI, 50 μg/mL.
Type: cell-based
Work on C=C(C)C1CC(=O)[C@@]2(O)CC=CC[C@H]12 (stereo partly drawn) [Zyj06-166] yielded an inhibition at 50 µg/mL of 25%.
Compound C=C(C)C1C[C@]2(O)C(C(=O)OCC)C(=O)O[C@@]23CC=CC[C@H]13 (stereo partly drawn) [Zyj06-167] has an inhibition at 50 µg/mL of 0%.
In the case of C=C(C)[C@@H]1C[C@]2(O)CC(=O)O[C@@]23CC=CC[C@H]13 [Zyj06-175], the inhibition at 50 µg/mL is reported as 0%.

The compounds below were run on Apis mellifera ligustica Spin (assay: not given). Conditions: dosage 9.93 μg a.i./bee.
For C=C(C)C1CC(=O)[C@@]2(O)CC=CC[C@H]12 (stereo partly drawn) [Zyj06-166], the “Death rate after 48 h (%)” value was 0%.

Same assay, conditions: dosage 9.93 μg a.i./bee; per replicate of 10 bees
With C=C(C)C1CC(=O)[C@@]2(O)CC=CC[C@H]12 (stereo partly drawn) [Zyj06-166] the “Death number after 24 h” value was 0 and the “Death number after 48 h” value was 0.

Same assay, conditions: dosage 19.7 μg a.i./bee
For C=C(C)C1CC(=O)[C@@]2(O)CC=CC[C@H]12 (stereo partly drawn) [Zyj06-166], the “Death rate after 48 h (%)” value was 10.0%.

Same assay, conditions: dosage 19.7 μg a.i./bee; per replicate of 10 bees
For C=C(C)C1CC(=O)[C@@]2(O)CC=CC[C@H]12 (stereo partly drawn) [Zyj06-166], the “Death number after 24 h” value was 0 and the “Death number after 48 h” value was 1.

The compounds below were run on Caenorhabditis elegans (assay: Insecticidal activity against Caenorhabditis elegans). Conditions: Caenorhabditis elegans, 100 μg/mL; read-out: insecticidal activity, Caenorhabditis elegans.
Type: in vivo
With C=C(C)C1CC(=O)[C@@]2(O)CC=CC[C@H]12 (stereo partly drawn) [Zyj06-166] the pest or weed control at 100 µg/mL was 5%.
Work on C=C(C)C1C[C@]2(O)C(C(=O)OCC)C(=O)O[C@@]23CC=CC[C@H]13 (stereo partly drawn) [Zyj06-167] yielded a pest or weed control at 100 µg/mL of 25%.
In the case of C=C(C)[C@@H]1C[C@]2(O)CC(=O)O[C@@]23CC=CC[C@H]13 [Zyj06-175], the pest or weed control at 100 µg/mL is reported as 15%.

What follows are compounds tested on Sclerotinia sclerotiorum (assay: Fungicidal activity, fungicide growth rate method, SS). Conditions: Sclerotinia sclerotiorum, 50 μg/mL.
Type: cell-based
Work on C=C(C)C1CC(=O)[C@@]2(O)CC=CC[C@H]12 (stereo partly drawn) [Zyj06-166] yielded an inhibition at 50 µg/mL of 17%.
C=C(C)C1C[C@]2(O)C(C(=O)OCC)C(=O)O[C@@]23CC=CC[C@H]13 (stereo partly drawn) [Zyj06-167] showed an inhibition at 50 µg/mL of 9%.
C=C(C)[C@@H]1C[C@]2(O)CC(=O)O[C@@]23CC=CC[C@H]13 [Zyj06-175] showed an inhibition at 50 µg/mL of 11%.

These compounds were tested on wheat Gibberella zeae (assay: microbe, parasite or virus in culture). Conditions: Fusarium graminearum, read-out: fungicidal activity (growth inhibition rate), GZ, 50 μg/mL.
Type: cell-based
With C=C(C)C1CC(=O)[C@@]2(O)CC=CC[C@H]12 (stereo partly drawn) [Zyj06-166] the inhibition at 50 µg/mL was 27%.
Compound C=C(C)C1C[C@]2(O)C(C(=O)OCC)C(=O)O[C@@]23CC=CC[C@H]13 (stereo partly drawn) [Zyj06-167] has an inhibition at 50 µg/mL of 46%.
C=C(C)[C@@H]1C[C@]2(O)CC(=O)O[C@@]23CC=CC[C@H]13 [Zyj06-175] was tested, and the inhibition at 50 µg/mL was 14%.

Each compound was assayed on Botrytis cinerea (assay: Fungicidal activity, fungicide growth rate method, BC). Conditions: Botrytis cinerea, 50 μg/mL; read-out: fungicidal activity (growth inhibition rate), BC.
Type: cell-based
C=C(C)C1CC(=O)[C@@]2(O)CC=CC[C@H]12 (stereo partly drawn) [Zyj06-166] was tested, and the inhibition at 50 µg/mL was 36%.
Work on C=C(C)C1C[C@]2(O)C(C(=O)OCC)C(=O)O[C@@]23CC=CC[C@H]13 (stereo partly drawn) [Zyj06-167] yielded an inhibition at 50 µg/mL of 13%.
C=C(C)[C@@H]1C[C@]2(O)CC(=O)O[C@@]23CC=CC[C@H]13 [Zyj06-175] showed an inhibition at 50 µg/mL of 25%.

What follows are compounds tested on Pellicularia sasakii (assay: Fungicidal activity, fungicide growth rate method, PS). Conditions: 50 μg/mL; read-out: fungicidal activity (growth inhibition rate), PS.
Type: cell-based
With C=C(C)C1CC(=O)[C@@]2(O)CC=CC[C@H]12 (stereo partly drawn) [Zyj06-166] the inhibition at 50 µg/mL was 18%.
For C=C(C)C1C[C@]2(O)C(C(=O)OCC)C(=O)O[C@@]23CC=CC[C@H]13 (stereo partly drawn) [Zyj06-167], the inhibition at 50 µg/mL was 24%.
C=C(C)[C@@H]1C[C@]2(O)CC(=O)O[C@@]23CC=CC[C@H]13 [Zyj06-175] gave an inhibition at 50 µg/mL of 5%.

Each compound was assayed on Cercospora arachidicola (assay: Fungicidal activity, fungicide growth rate method, CA). Conditions: Mycosphaerella arachidis, 50 μg/mL; read-out: fungicidal activity (growth inhibition rate), CA.
Type: cell-based
Compound C=C(C)C1CC(=O)[C@@]2(O)CC=CC[C@H]12 (stereo partly drawn) [Zyj06-166] has an inhibition at 50 µg/mL of over 50%.
In the case of C=C(C)C1C[C@]2(O)C(C(=O)OCC)C(=O)O[C@@]23CC=CC[C@H]13 (stereo partly drawn) [Zyj06-167], the inhibition at 50 µg/mL is reported as 26%.
Work on C=C(C)[C@@H]1C[C@]2(O)CC(=O)O[C@@]23CC=CC[C@H]13 [Zyj06-175] yielded an inhibition at 50 µg/mL of 33%.

Each compound was assayed on Mythimna separate (Walker) (assay: Insecticidal activity against Mythimna separate (Walker)). Conditions: Mythimna, 100 μg/mL; read-out: insecticidal activity, Mythimna separate (Walker).
Type: in vivo
C=C(C)C1CC(=O)[C@@]2(O)CC=CC[C@H]12 (stereo partly drawn) [Zyj06-166] was tested, and the pest or weed control at 100 µg/mL was 0%.

These compounds were tested on Ostrinia furnacalis (assay: Insecticidal activity against Ostrinia furnacalis). Conditions: Ostrinia furnacalis; 100 μg/mL; read-out: insecticidal activity, Ostrinia furnacalis.
Type: in vivo
C=C(C)C1CC(=O)[C@@]2(O)CC=CC[C@H]12 (stereo partly drawn) [Zyj06-166] was tested, and the pest or weed control at 100 µg/mL was 0%.

These compounds were tested on Helicoverpa armigera (Hübner) (assay: Insecticidal activity against Helicoverpa armigera (Hübner)). Conditions: Helicoverpa armigera; 100 μg/mL; read-out: insecticidal activity, Helicoverpa armigera (Hübner).
Type: in vivo
For C=C(C)C1CC(=O)[C@@]2(O)CC=CC[C@H]12 (stereo partly drawn) [Zyj06-166], the pest or weed control at 100 µg/mL was 0%.
